Data as given in patent publication US11964000B2, “Cancer treatment methods using nanofiber stabilized growth factors” (Northwestern University, priority 2020, dated 2024).
“Also recorded” adds a separate entry of the source. Blank lines part the entries; values can stand above or below the molecule they belong to. Residues, ends and D or L forms follow the SMILES beside them. Groups on a side chain read outwards from the residue. *: point of attachment. X1 = CC(=O)N[C@H]1[C@H](OCCn2cc(CCC(=O)*)nn2)O[C@H](COS(=O)(=O)O)[C@@H](OS(=O)(=O)O)[C@@H]1OS(=O)(=O)O; Palmitoyl = CCCCCCCCCCCCCCCC(=O)*; AEEA = NCCOCCOCC(=O)O

Columns and labels:
[1] = tested on: KNS42 cells; experiment: KNS42 cell viability in response to vincristine and vinblastine after BMP4 treatment; type: cell-based, human
Source text: (§1) FIG. 2. BMP4 increases chemotherapeutic efficacy via reducing SETD1A and H3K4me3. (FIG. 2A) H3K4me3 levels in pediatric high-grade glioma cells in response to BMP4 (1 to 100/ng/ml). (FIG. 2B) SETD1A, SMAD1/5/8, MDR1, H3K4me3 levels in pediatric high-grade glioma-KNS42 cells and LCH-13-pGBM patient derived primary cultured cells. (FIG. 2C) KNS42 cell viability in response to vincristine (VCR) and vinblastine (VBL) with/without Dorsomorphine, a phosphoSMAD1/5/8 inhibitor. (FIG. 2D, FIG. 2E) KNS42 cell viability in response to VCR and VBL following down- or up-regulation of SETD1A via siSETD1A (D) or pET28-SETD1A and pET28-SETD1A with PSC833, a specific MDR1 inhibitor (E), respectively. (FIG. 2F) Protein immunoprecipitation with SMAD1/5/8, pSMAD1/5/8 antibodies from total protein extracts from BMP4 treated KNS42 cells using Biotin-streptavidin kit (Thermo Fisher) and detected with SETD1A, SMAD1/5/8, pSMAD1/5/8 using western blots.
(§2) This decreasing effect is reversed by Dorsomorphine, an inhibitor of pSMAD1/5/8 (FIG. 2C). In parallel, it was also tested and verified that SETD1A is associated with chemosensitivity in vitro in HGG cells (FIGS. 2D and E). […] Thus, it was hypothesized that BMP4 is altering gene expression through its effect on histone PTM. These findings prompted investigation of 1) in addition to H3K4me3, determining other histone PTMs that are affected subsequent to BMP4 treatment of tumor cells; and 2) other gene expression alterations that contribute to the heightened tumor cell response to cytotoxic therapy following BMP4 treatment.

[2] = tested on: HGG cells; experiment: HGG cell chemosensitivity (carboplatin) with PA-bound BMP4; type: cell-based, human; conditions: PA 25 μM with BMP4 5 ng/ml; response to carboplatin treatment
Source text: (§3) FIG. 5. Self-assembled peptide amphiphile nanostructures extend and enhance BMP4 effects in pediatric high grade glioma cells in vitro. (FIG. 5A) Western blots show PAs enhance BMP4 function by activating its downstream target pSMAD1/5/8 in pediatric glioma KNS42 (FIG. 5B) and CHLA200 cells. (FIG. 5C) Increased therapeutic efficacy in response to carboplatin treatment.
(§4) To investigate biological effects of PA-BMP4, HGG responses to different types of PAs, both with and without bound BMP4, were analyzed. HGG cells were treated with BMP4 (5 ng/ml), GlncPA (25 μM) and GlncPA (25 μM)-BMP4 (5 ng/ml), E2-PA (25 μM) and E2-PA (25 μM)-BMP4 (5 ng/ml) for 24h and 72h.

[3] = target: T1, BMP4 (Homo sapiens, UniProt P12644); experiment: ELISA of BMP4 half-life with peptide amphiphile nanostructures; conditions: BMP4 with PA nanostructures
T1 sequence (P12644 293-408): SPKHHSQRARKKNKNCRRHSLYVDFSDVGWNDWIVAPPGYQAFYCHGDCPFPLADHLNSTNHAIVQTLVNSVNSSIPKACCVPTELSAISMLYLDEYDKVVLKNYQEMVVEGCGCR
Description: FIG. 3. […] (FIG. 3A) Molecular structure of GlncPA molecule (i.e. the glycosylated peptide amphiphile or “GPA”) and schematic of the self-assembled GlncPA nanofiber. The grey molecular region guides the self-assembly process into nanofibers, the blue molecular region contains the tri-sulfated monosaccharide responsible for protein binding actions. (FIG. 3B) SEM of GlncPA nanofiber bundles after exposure to blood proteins for 5 minutes. […] (Abbreviation: E2PA=filler PA=E2-PA, GlncPA=glycosylated PA=GPA)
The grey molecular region guides the self-assembly process into nanofibers, the blue molecular region contains the tri-sulfated monosaccharide responsible for protein binding actions.

[4] = tested on: pSMAD1/5/8; experiment: Western blot of pSMAD1/5/8 in HGG cells treated with PAs with and without BMP4; type: cell-based, human; conditions: PA 25 μM with BMP4 5 ng/ml, 24h and 72h; KNS42 and CHLA200 cells
Source text: as §3, §4

[5] = Cy3-coupled PA, intracranial injection, compared with E2PA and MixPA
Source text: (FIG. 6A) Intracranial distribution of glycosylated (GlncPA), E2 (E2PA) and glycosylated+E2 (MixPA) peptide amphiphiles coupled with Cy3.
Intracranial distribution of PAs administered directly into mouse brain, as well as the anti-tumor activity of direct intratumoral administration of PA-bound BMP4, was investigated.

[6] = tested on: H3K4me3; experiment: H3K4me3 levels in pediatric high-grade glioma cells in response to BMP4; type: cell-based, human; conditions: BMP4 1 to 100 ng/ml
Source text: as §1
This decreasing effect is reversed by Dorsomorphine, an inhibitor of pSMAD1/5/8 (FIG. 2C). In parallel, it was also tested and verified that SETD1A is associated with chemosensitivity in vitro in HGG cells (FIGS. 2D and E). […] Thus, it was hypothesized that BMP4 is altering gene expression through its effect on histone PTM. […]

[7] = tested on: pSMAD1/5/8, SETD1A, MDR1; experiment: Western blot of SETD1A, SMAD1/5/8, MDR1 in KNS42 cells and LCH-13-pGBM primary cultured cells after BMP4; type: cell-based, human; conditions: KNS42 and LCH-13-pGBM cells, BMP4 treatment
Source text: as §1, §2

Molecule: c1cc(-c2cnn3cc(-c4ccc(OCCN5CCCCC5)cc4)cnc23)ccn1 [Dorsomorphine, reference compound]
effect on BMP4-induced decrease of cell viability with VCR or VBL ([1]; Dorsomorphine, inhibitor of pSMAD1/5/8, added): reversed

BMP4 half-life [3]: extend BMP4 half-life
Molecule: CCCCCCCCCCCCCCCC(=O)N[C@H](C(=O)N[C@H](C(=O)N[C@@H](C)C(=O)N[C@@H](C)C(=O)N[C@@H](CCC(=O)O)C(=O)N[C@@H](CCC(=O)O)C(N)=O)C(C)C)C(C)C [E2-PA] (Palmitoyl-VVAAEE-NH2)
HGG cell chemosensitivity [2]: increased HGG cell chemosensitivity
BMP4 activity as phosphorylation of SMAD1/5/8 [4]: enhance BMP4 activity

Molecule: CCCCCCCCCCCCCCCC(=O)N[C@H](C(=O)N[C@H](C(=O)N[C@@H](C)C(=O)N[C@@H](C)C(=O)N[C@@H](CCC(=O)O)C(=O)N[C@@H](CCC(=O)O)C(=O)N[C@@H](CCCCNC(=O)COCCOCCNC(=O)CCc1cn(CCO[C@@H]2O[C@H](COS(=O)(=O)O)[C@@H](OS(=O)(=O)O)[C@H](OS(=O)(=O)O)[C@H]2NC(C)=O)nn1)C(N)=O)C(C)C)C(C)C [GlncPA] (Palmitoyl-VVAAEEK([AEEA-X1])-NH2)
BMP4 half-life [3]: markedly prolong the half-life of BMP4
intracranial distribution [5]: greater distribution

B1: Bone morphogenetic protein 4 (protein)
chain: SPKHHSQRARKKNKNCRRHSLYVDFSDVGWNDWIVAPPGYQAFYCHGDCPFPLADHLNSTNHAIVQTLVNSVNSSIPKACCVPTELSAISMLYLDEYDKVVLKNYQEMVVEGCGCR
cell viability with vinblastine (VBL) ([1]; BMP4 for 48 hrs, then VBL 2 μg/ml, relative to VBL alone): markedly decreased cell viability
cell viability with vincristine (VCR) ([1]; BMP4 for 48 hrs, then VCR 1 μg/ml, relative to VCR alone): markedly decreased cell viability
H3K4me3 level [6]: reduces H3K4me3; also recorded: significant decrease in H3K4me3
expression of SETD1A [7]: decreasing expression of SETD1A
expression of multidrug resistant gene 1 (MDR1) [7]: decreasing expression
phosphorylation of SMAD1/5/8 (pSMAD1/5/8) [7]: increases phosphorylation of SMAD1/5/8
